From patent publication US8703811B2, “Small molecule inhibitors of Plasmodium falciparum dihydroorotate dehydrogenase” (Genzyme Corporation, priority 2008, dated 2014)
In brackets after ≈: the same amount, converted by molar mass. Read-outs that look alike come from different tables or passages of the source.

Tests used:
Permeability = type: in vitro ADME; conditions: for Papp: Caco-2
Method: Permeability assays using the Caco-2 colon carcinoma cell line are being used throughout the pharmaceutical industry to estimate the ability of potential drug compounds to cross the intestinal epithelium. Caco-2 cell permeability studies are performed using Caco-2 cell monolayers grown on microporous membranes in multiwell insert systems. With the inserts suspended in the wells of multiwell plates, test compounds can be added to either the upper (apical) or lower (basolateral) chamber to measure permeability in the absorptive (apical to basolateral) or secretive (basolateral to apical) directions. Samples are then taken from the opposite chamber at various time intervals to measure the amount of test compound that has crossed the cell monolayer. A representative method to generate permeability data similar to that in Table 3 can be found in Alsenz, J; Haenel, E. “Development of a 7-Day, 96-Well Caco-2 Permeability Assay with High-Throughput Direct UV Compound Analysis.” Pharmaceutical Research 2003 20(12): p 1961-1969.
Parallel artificial membrane permeability assay (PAMPA) utilizes a simple phospholipid-coated filter disc to measure membrane permeability. It was developed as an alternative to the low throughput. Caco-2 cell permeability assay used to correlate passive permeability with in vivo oral absorption. A representative publication disclosing this method is Kerns, E H; Di, L; Petusky, S; Farris, M; Ley, R; Jupp, P. “Combined application of parallel artificial membrane permeability assay and Caco-2 permeability assays in drug discovery.” J. Pharma Sci. 2004, 93 (6), pages 1440-53.
Cell culture methods (e.g. Caco-2, HT-29 and MDC) and physicochemical methods such as PAMPA and immobilized artificial membrane (IAM) columns are known in the art and can be used to obtain data such as that in Table 3. Hidalgo, I J; “Assessing the absorption of new pharmaceuticals.” Curr Top Med. Chem. 2001 November; 1(5): p 385-401.

Solubility measurement = type: physicochemical
From the text: Many standard techniques are known in the art to establish the solubility of a compound in a particular solvent. The following description is one such technique that could be used to determine the solubility: Equilibrium solubility measurements start with the solid form of the compound (crystalline form preferred). The powder is physically mixed with an aqueous buffer (defined pH) until equilibrium is reached. Either centrifugation or filtration can be used to separate the solution from the remaining solid. The amount dissolved in the solution can be determined by any one of many known methods including HPLC or UV/Vis spectroscopic techniques.

Cytochrome P450 2C19 = Cytochrome P450 2C19 (Homo sapiens (Human), UniProt P33261); experiment: Cytochrome P450 inhibition, 2C19; type: in vitro ADME
From the text: (§1) Rapid screening for cytochrome P450 inhibitors is part of the current paradigm for avoiding development of drugs likely to give clinical pharmacokinetic drug-drug interactions and associated toxicities. There are commercially available assays for such screenings. For example, BD Biosciences (http://www.bdbiosciences.com/index.shtml) provides a technical bulletin describing a detailed, step-by-step procedure for the performance of the high throughput cytochrome P450 inhibition testing method.

[1] = system: Normal Human Dermal Fibroblasts; experiment: Normal Human Dermal Fibroblast Toxicity Screen; type: cell-based
Summary of the method: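 Fibroblasts seeded at 0.25 to 0.3×10^5 cells/mL, allowed 24 h at 37° C./5% CO2, then exposed to compounds for 96 hours. Viability read as Alamar Blue fluorescence after 3 h, with a T=0 plate, Tween 20 as positive control and DMSO as negative control.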

Cytochrome P450 2C9 = Cytochrome P450 2C9 (Homo sapiens (Human), UniProt P11712); experiment: Cytochrome P450 inhibition, 2C9; type: in vitro ADME
From the text: as §1

[2] = system: Renal Proximal Tubule Epithelial Cells; experiment: Renal Proximal Tubule Epithelial Cell Toxicity Screen; type: cell-based
Summary of the method: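 Normal renal epithelial cells seeded at 1.5×10^4 cells/mL, grown 24 h at 37 °C/5% CO2, then exposed to compounds for 96 h; a T=0 plate was read at dosing. Viability by Alamar Blue fluorescence after 4 h, with Tween 20 and DMSO wells as positive and negative controls.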

Cytochrome P450 2D6 = Cytochrome P450 2D6 (Homo sapiens (Human), UniProt P10635); experiment: Cytochrome P450 inhibition, 2D6; type: in vitro ADME
From the text: as §1

P. falciparum Dd2 = experiment: Inhibition of in vitro P. falciparum culture, [3H]-hypoxanthine uptake, Dd2; type: cell-based; conditions: for EC50: read-out: Dd2 EC50; for IC50: read-out: Dd2 IC50
Summary of the method: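 Parasite growth inhibition measured as relative reduction of [3H]-hypoxanthine uptake in in vitro cultures. Values from non-linear regression fit, using relative growth velocity in place of product-formation rate.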

[3] = aqueous buffer, thermodynamic from solid, read-out: Solubility
[4] = Plasmodium falciparum, DD2, Table 2b
[5] = Plasmodium falciparum, DD2, Table 3, [3H]-hypoxanthine uptake
[6] = Table 3, [3H]-hypoxanthine uptake

Cytochrome P450 2C9, sequence (P11712 whole entry): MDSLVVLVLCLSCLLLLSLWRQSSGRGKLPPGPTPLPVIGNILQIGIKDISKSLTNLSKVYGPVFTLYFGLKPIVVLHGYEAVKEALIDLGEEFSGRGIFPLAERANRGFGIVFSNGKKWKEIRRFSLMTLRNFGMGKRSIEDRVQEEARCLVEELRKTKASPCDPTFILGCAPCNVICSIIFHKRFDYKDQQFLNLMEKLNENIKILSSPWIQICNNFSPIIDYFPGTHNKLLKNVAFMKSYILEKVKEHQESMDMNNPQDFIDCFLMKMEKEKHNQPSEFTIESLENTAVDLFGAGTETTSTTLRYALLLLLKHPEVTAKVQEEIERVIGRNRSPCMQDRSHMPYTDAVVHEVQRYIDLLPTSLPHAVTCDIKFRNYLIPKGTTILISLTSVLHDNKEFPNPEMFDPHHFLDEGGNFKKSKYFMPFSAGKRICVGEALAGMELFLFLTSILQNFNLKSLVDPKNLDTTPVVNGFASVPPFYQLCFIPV
Cytochrome P450 2C19, sequence (P33261 whole entry): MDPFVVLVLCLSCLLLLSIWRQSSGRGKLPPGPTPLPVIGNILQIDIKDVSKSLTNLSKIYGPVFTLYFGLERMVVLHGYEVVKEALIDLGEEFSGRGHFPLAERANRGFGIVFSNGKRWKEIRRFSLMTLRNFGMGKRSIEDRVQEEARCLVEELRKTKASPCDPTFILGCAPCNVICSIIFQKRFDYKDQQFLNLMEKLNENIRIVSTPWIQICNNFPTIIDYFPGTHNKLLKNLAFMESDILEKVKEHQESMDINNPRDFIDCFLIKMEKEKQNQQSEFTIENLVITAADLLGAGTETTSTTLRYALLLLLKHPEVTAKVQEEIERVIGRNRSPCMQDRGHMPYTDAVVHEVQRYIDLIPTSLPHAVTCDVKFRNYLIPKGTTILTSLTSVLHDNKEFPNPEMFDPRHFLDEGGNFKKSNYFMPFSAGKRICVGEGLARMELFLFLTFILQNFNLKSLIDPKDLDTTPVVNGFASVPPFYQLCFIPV
Cytochrome P450 2D6, sequence (P10635 whole entry): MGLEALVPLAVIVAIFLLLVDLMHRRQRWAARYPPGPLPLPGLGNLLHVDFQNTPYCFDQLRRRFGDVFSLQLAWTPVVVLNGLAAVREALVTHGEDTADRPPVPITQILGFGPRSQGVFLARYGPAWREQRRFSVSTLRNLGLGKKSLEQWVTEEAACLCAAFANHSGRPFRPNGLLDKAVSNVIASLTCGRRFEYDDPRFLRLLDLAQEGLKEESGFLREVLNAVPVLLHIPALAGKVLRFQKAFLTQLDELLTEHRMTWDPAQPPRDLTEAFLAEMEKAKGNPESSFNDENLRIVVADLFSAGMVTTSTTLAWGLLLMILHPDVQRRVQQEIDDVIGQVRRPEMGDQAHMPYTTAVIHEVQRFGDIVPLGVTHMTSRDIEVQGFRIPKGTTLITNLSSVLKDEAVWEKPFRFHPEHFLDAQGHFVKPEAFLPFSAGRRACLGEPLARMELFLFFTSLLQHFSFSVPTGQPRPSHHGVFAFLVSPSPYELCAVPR

Molecule	Papp (Permeability)	solubility (Solubility measurement; [3])	Cytochrome P450 Inhibition, 2C19 (Cytochrome P450 2C19)	cytotoxicity in dermal fibroblasts [1]	Cytochrome P450 Inhibition, 2C9 (Cytochrome P450 2C9)	cytotoxicity in kidney epithelial cells [2]	Cytochrome P450 Inhibition, 2D6 (Cytochrome P450 2D6)	EC50 (P. falciparum Dd2; [4])	IC50 (P. falciparum Dd2; [5])	IC50 (P. falciparum Dd2; [6])	Permeability (Permeability)	solubility (Solubility measurement)	CC50 ([1]; four days exposure, Alamar Blue, read-out: Dermal Fibroblast LC50)	EC50 (P. falciparum Dd2; Table 2b)	CC50 ([2]; 4 days exposure, Alamar Blue, read-out: Kidney Epithelial LC50)	IC50 (P. falciparum Dd2; Plasmodium falciparum, DD2, Erythrocyte, [3H]-hypoxanthine uptake by parasite infected erythrocytes)
CCCNC(=O)c1ccc(-n2c(C)nc3ccccc32)s1 [Compound 12, 5-(2-methyl-1H-benzo[d]imidazol-1-yl)-N-propylthiophene-2-carboxamide]	65 ×10⁻⁶ cm/s	> 30 µg/mL	>5.0 in 2C19 μM	No adverse cytotoxicity	>5.0 in 2C9 μM	No adverse cytotoxicity	>5.0 in 2D6 μM									
CCCNC(=O)c1ccc(-n2cnc3ccccc32)s1 [Compound 11, 5-(1H-benzo[d]imidazol-1-yl)-N-propylthiophene-2-carboxamide]	32 ×10⁻⁶ cm/s	> 30 µg/mL	>5.0 in 2C19 μM		>5.0 in 2C9 μM		>5.0 in 2D6 μM	1100 nM	955 nM	1250 nM						
5-(1H-indol-1-yl)-N-propylthiophene-2-carboxamide [Compound 7]										230 nM	52 cm/sec × 10^−6	1 µg/mL	50000 nM	1030 nM	50000 nM	
CCCNC(=O)c1ccc(-n2c(C)cc3ccccc32)s1 [Compound 1, 5-(2-methyl-1H-indol-1-yl)-N-propylthiophene-2-carboxamide]		0.9 µg/mL (≈ 3.02 µM)						493 nM	250 nM							290 nM
